We go through three molecules from PMC6272295, “In Vitro Neuroprotective Activities of Compounds from Angelica shikokiana Makino” (Molecules, 2015).

Where two headings read alike, the source gives them in different places.

In data set [1] the test system is neuro-2A cells. In words: Protection against H2O2-induced neurotoxicity (MTT). The data set is classed as cell-based, Mouse. The note with it: for neuroprotection against H2O2-induced neurotoxicity (in words): 6.25-100 µM, H2O2 150 µM; for Protection against H2O2: summary Table 4. As for the experimental part: Neuro-2A cell line was maintained in Eagle’s Minimum Essential medium supplemented with 10% fetal bovine serum, 1% of 100× antibiotic—antimitotic agents (containing penicillin and streptomycin) in a humid atmosphere of 5% (v/v) CO2 and 95% (v/v) air at 37 °C. Neuro-2A cells were plated in 96-well cell culture plates at a density of 3 × 10^4 cells/well for H2O2 and intracellular ROS assays and 2.5 × 10^3 cells/well for the Aβ25-35-assay.
Cell viability was determined by MTT reduction assay. Briefly, after treatment with isolated compounds, the media was replaced by fresh one after washing the cells with 100 µL PBS and 20 µL of MTT (5 mg/mL) was added to each well. After 4 h incubation at 37 °C, the state of cells was checked under microscope to confirm either cytotoxicity in H2O2 and Aβ25-35 wells or protection in positive controls and isolated compounds ones. The supernatants were aspirated carefully, and 150 µL of DMSO was added to each well to dissolve the dark blue formazan crystals. The absorbance was measured using a microplate reader at 570 nm.
H2O2 interacts with metals in the medium, producing highly cytotoxic hydroxyl radicals that induce neurotoxicity. So, active compounds are those that can scavenge free radicals and increase the cell viability. This assay was performed as previously described with slight modifications. Briefly, the concentration of H2O2 that decreased cell viability to about 50% was determined as follows: cells were cultured in a 96-well plate and after 24 h were further incubated with different concentrations of H2O2 (50, 100, 150, 200 µM) freshly prepared from 30% stock solution. After 24 h, cell viability was determined using the MTT reduction method. H2O2 at a concentration of 150 µM had the desired cytotoxicity and was used for the next step.

Data set [2] is described as follows: Scavenging of hydroxyl radical, 2-deoxyribose degradation assay. As to Hydroxyl Radical Scavenging (grade): key: +: Weak activity; ++: Strong activity. Here is the method:
The inhibitory effect of bioactive compounds on deoxyribose degradation was determined by measuring the competition between deoxyribose and bioactive compounds for the hydroxyl radicals (^.OH) generated from the Fe^3+/ascorbate/EDTA/H2O2 system (referred to non-site-specific assay; the major activity measured is ^.OH scavenging) or an Fe^3+/ascorbate/H2O2 system (referred to as a site-specific assay; major activity measured is metal chelation). Both assays depend on the formation of a highly reactive hydroxyl radical, OH, by the interaction of iron ions with H2O2 through Fenton’s reaction. […] This assay was performed as previously described. Different concentrations of tested compounds were dissolved in 400 µL phosphate buffer (0.2 M, pH 7.4). Then, 50 µL of deoxyribose (60 mM), 50 µL of Na2EDTA (2 mM), 50 µL of FeCl3 (3.2 mM), 50 µL of H2O2 (60 mM) and 50 µL of ascorbic acid (2 mM) were added, and the total volume of the reaction mixture was adjusted to 1 mL with buffer. After water-bath incubation at 50 °C for 25 min, the reaction was terminated by 250 µL of trichloroacetic acid (10%, w/w). […] For site-specific hydroxyl-radical-scavenging activity, the reaction mixture was similar to the above method, except that EDTA was replaced by an equivalent volume of buffer.
IC50 values of isolated compounds in AChEI and scavenging of hydroxyl radical assays were calculated using Probit Analysis (SPSS Version 16.0 for Windows, SPSS Inc., Chicago, IL, USA) for five different concentrations in three independent experiments. Cell viability was expressed as a percentage of MTT reduction, assuming that the viability of cells treated with 1% DMSO as a negative control was 100%. […] All values are the mean ± SD of three independent experiments. Data were analyzed for statistical significance using one-way ANOVA, followed by Dunnet’s test as a post-hoc test with GraphPad Prism 5.0 software for Windows (Inc., San Diego, CA, USA).

Where [3] appears, read: Fe3+/ascorbate/EDTA/H2O2 system, read-out: IC50 hydroxyl radical scavenging, Non Site-Specific.
The mark [4] stands for this setting: Fe3+/ascorbate/H2O2 system without EDTA, read-out: IC50 hydroxyl radical scavenging, Site-Specific.
The mark [5] stands for this setting: summary Table 4 (values of the non site-specific assay), read-out: Hydroxyl Radical Scavenging/IC50.

Turning to `CC(=O)OC1c2c(ccc3ccc(=O)oc23)OC(C)(C)C1OC(=O)C(C)(O)C(C)O` (centres unmarked) [Hyuganin E (6), hyuganin E], in data set [1], the “neuroprotection against H2O2-induced neurotoxicity (in words)” value (“neuroprotection” below) is “significant (p < 0.05) increase in cell viability at 100 µM” and the “Protection against H2O2” value is “+”. For the same molecule, in data set [2] (at 300 µM (maximum solubility in phosphate buffer)), the “% Inhibition of deoxyribose degradation, Non Site-Specific” value was 37.5 ± 3.5%. Further, in data set [2] (summary Table 4), the “Hydroxyl Radical Scavenging (grade)” value is on record as “+”.

Regarding `O=c1c(O)c(-c2ccc(O)cc2)oc2cc(O)cc(O)c12` [Kaempferol (8), kaempferol], the “neuroprotection” value in data set [1] is recorded as “significant (p < 0.05) increase in cell viability at 100 µM”. The “Protection against H2O2” value in data set [1] is “+”. In addition, the IC50 in data set [2] (setting [3]) was 720 ± 7.9 µM; in data set [2] (setting [4]), 901 ± 17.9 µM; in data set [2] (setting [5]) it was 720 ± 7.9 µM.

On to `O=c1c(OC2OC(CO)C(O)C(O)C2O)c(-c2ccc(O)cc2)oc2cc(O)cc(O)c12` (centres unmarked) [Kaempferol-3-O-glucoside (13), kaempferol-3-O-glucoside], for which the “neuroprotection” value in data set [1] is “significant (p < 0.05) increase in cell viability at 100 µM”. In data set [1], the “Protection against H2O2” value is reported as “+”. Moreover, the results for the IC50 in data set [2] (setting [3]), in data set [2] (setting [4]) and in data set [2] (setting [5]) were 1150 ± 6.7 µM, 1300 ± 24.3 µM and 1150 ± 6.7 µM, respectively.
